# Laboratory results published in US20260262643A1, “HERBICIDAL BENZOXAZINES” (FMC CORPORATION, priority 2022, published 2026).
# Experiments:
# barnyardgrass [1] = assay: Test C preemergence; type: in vivo, Echinochloa crusgalli; details: Preemergence, 1000 g ai/ha; visual rating after 10 days, 0 to 100 scale (0 no effect, 100 complete control)
# Source text: (§1) Seeds of plant species selected from barnyardgrass (Echinochloa crusgalli), blackgrass (Alopecurus myosuroides), corn (Zea mays), foxtail, giant (giant foxtail, Setaria faberi), green foxtail (Setaria viridis), goosegrass (Eleusine indica), kochia (Bassia scoparia), oat, wild (wild oat, Avena fatua), pigweed, palmer (palmer amaranth, palmer pigweed, Amaranthus palmeri), Pigweed, Redroot (redroot pigweed, Amaranthus retroflexus), ragweed (common ragweed, Ambrosia artemisiifolia), ryegrass, Italian ([…] ryegrass, Lolium multiflorum), soybean (Glycine max), and wheat (Triticum aestivum) were planted into a blend of loam soil and sand and treated preemergence with a directed soil spray using test chemicals formulated in a non-phytotoxic solvent mixture which included a surfactant. At the same time, plants selected from these crops and weed species and also galium (catchweed bedstraw, Galium aparine) and horseweed (Erigeron canadensis) were planted in pots containing the same blend of loam soil and sand and treated with postemergence applications of test chemicals formulated in the same manner. Plants ranged in height from 2 to 10 cm and were in the one- to two-leaf stage for the postemergence treatment. Treated plants and untreated controls were maintained in a greenhouse for 10 days, after which time all treated plants were compared to untreated controls and visually evaluated for injury. Plant response ratings, summarized in Table C, are based on a 0 to 100 scale where 0 is no effect and 100 is complete control. A dash (-) response means no test result.
# blackgrass [2] = assay: Test C preemergence; type: in vivo, Alopecurus myosuroides; details: Preemergence, 1000 g ai/ha; visual rating after 10 days, 0 to 100 scale (0 no effect, 100 complete control)
# Source text: as §1
# green foxtail [3] = assay: Test C preemergence; type: in vivo, Setaria viridis; details: Preemergence, 1000 g ai/ha; visual rating after 10 days, 0 to 100 scale (0 no effect, 100 complete control)
# Source text: as §1
# kochia [4] = assay: Test C preemergence; type: in vivo, Bassia scoparia; details: Preemergence, 1000 g ai/ha; visual rating after 10 days, 0 to 100 scale (0 no effect, 100 complete control)
# Source text: as §1
# pigweed, palmer [5] = assay: Test C preemergence; type: in vivo, Amaranthus palmeri; details: Preemergence, 1000 g ai/ha; visual rating after 10 days, 0 to 100 scale (0 no effect, 100 complete control)
# Source text: as §1
# ragweed [6] = assay: Test C preemergence; type: in vivo, Ambrosia artemisiifolia; details: Preemergence, 1000 g ai/ha; visual rating after 10 days, 0 to 100 scale (0 no effect, 100 complete control)
# Source text: as §1
# ryegrass, Italian [7] = assay: Test C preemergence; type: in vivo, Lolium multiflorum; details: Preemergence, 1000 g ai/ha; visual rating after 10 days, 0 to 100 scale (0 no effect, 100 complete control)
# Source text: as §1
# barnyardgrass [8] = assay: Test C postemergence; type: in vivo, Echinochloa crusgalli; details: Postemergence, 1000 g ai/ha
# Source text: as §1
# blackgrass [9] = assay: Test C postemergence; type: in vivo, Alopecurus myosuroides; details: Postemergence, 1000 g ai/ha
# Source text: as §1
# green foxtail [10] = assay: Test C postemergence; type: in vivo, Setaria viridis; details: Postemergence, 1000 g ai/ha
# Source text: as §1
# kochia [11] = assay: Test C postemergence; type: in vivo, Bassia scoparia; details: Postemergence, 1000 g ai/ha
# Source text: as §1
# pigweed, palmer [12] = assay: Test C postemergence; type: in vivo, Amaranthus palmeri; details: Postemergence, 1000 g ai/ha
# Source text: as §1
# ragweed [13] = assay: Test C postemergence; type: in vivo, Ambrosia artemisiifolia; details: Postemergence, 1000 g ai/ha
# Source text: as §1
# ryegrass, Italian [14] = assay: Test C postemergence; type: in vivo, Lolium multiflorum; details: Postemergence, 1000 g ai/ha
# Source text: as §1
# galium = assay: Test C postemergence; type: in vivo, Galium aparine; details: Postemergence, 1000 g ai/ha
# Source text: as §1
# horseweed = assay: Test C postemergence; type: in vivo, Erigeron canadensis; details: Postemergence, 1000 g ai/ha
# Source text: as §1
# [15] = 0 to 100 scale, 0 no effect, 100 complete control
# [16] = 10 days, visual 0 to 100 scale (0 no effect, 100 complete control)
Structure (SMILES),"Plant response rating, Barnyardgrass (barnyardgrass [1])","Plant response rating, Blackgrass (blackgrass [2])","Plant response rating, Foxtail, Green (green foxtail [3])","Plant response rating, Kochia (kochia [4])","Plant response rating, Pigweed, Palmer (pigweed, palmer [5])","Plant response rating, Ragweed (ragweed [6])","Plant response rating, Ryegrass, Italian (ryegrass, Italian [7])","Plant response rating, Barnyardgrass (barnyardgrass [8]; [15])","Plant response rating, Blackgrass (blackgrass [9]; [15])","Plant response rating, Foxtail, Green (green foxtail [10]; [15])","Plant response rating, Kochia (kochia [11]; [15])","Plant response rating, Pigweed, Palmer (pigweed, palmer [12]; [15])","Plant response rating, Ragweed (ragweed [13]; [15])","Plant response rating, Ryegrass, Italian (ryegrass, Italian [14]; [15])","Plant response rating, Galium (galium; [15])","Plant response rating, Horseweed (horseweed; [15])","Plant response rating, Blackgrass (blackgrass [9]; [16])","Plant response rating, Foxtail, Green (green foxtail [10]; [16])","Plant response rating, Kochia (kochia [11]; [16])","Plant response rating, Pigweed, Palmer (pigweed, palmer [12]; [16])",further results
Cc1ccc(-c2cccc(C(=O)N3C[C@H](C)Oc4c(C)cccc43)c2)nn1 [Compound 160],30,0,30,70,20,0,40,10,20,40,70,0,0,0,50,0,,,,,
Cc1cccc2c1O[C@@H](C)CN2C(=O)c1cccc(-n2cnc(Cl)c2)c1 [Compound 304],60,70,100,10,70,0,90,,,,,,,,,,30,20,40,20,"Plant response rating, Barnyardgrass (barnyardgrass [8]; [16]): 10; Plant response rating, Ragweed (ragweed [13]; [16]): 0; Plant response rating, Ryegrass, Italian (ryegrass, Italian [14]; [16]): 0; Plant response rating, Galium (galium; [16]): 70; Plant response rating, Horseweed (horseweed; [16]): 0"
Cc1ccc(-c2cccc(C(=O)N3C[C@H](C)Oc4c(C)cccc43)c2)cn1 [Compound 159],0,0,20,0,20,0,20,10,0,30,40,20,60,40,50,0,,,,,
Cc1csc(-c2cccc(C(=O)N3C[C@H](C)Oc4c(C)cccc43)c2)c1 [Compound 245],20,0,30,0,20,,60,0,,,,,,,,,0,0,0,0,"Plant response rating, Ragweed (ragweed [13]; [16]): 10; Plant response rating, Ryegrass, Italian (ryegrass, Italian [14]; [16]): 0; Plant response rating, Galium (galium; [16]): 0; Plant response rating, Horseweed (horseweed; [16]): 30"
